Data on three compounds can be found in patent US20090054403A1, “Treatment of Post-Traumatic Stress Disorder” (priority 2007, published 2009).

“And” between values parts separate entries of the source, which are not always exact repeats. Identical values can stand only once. Like-named read-outs stand apart in the source and are kept apart here.

Assay [1] deals with T1, human dopamine-β-hydroxylase (Homo sapiens, UniProt P09172).
T1 construct: Human secretory DBH was purified from the culture medium of the neuroblastoma cell line SK-N-SH; endogenous in cells; host or cells: SK-N-SH neuroblastoma cells; secreted enzyme purified in house from the culture medium on lentil lectin-sepharose
T1 sequence (P09172 40-617 limits assumed): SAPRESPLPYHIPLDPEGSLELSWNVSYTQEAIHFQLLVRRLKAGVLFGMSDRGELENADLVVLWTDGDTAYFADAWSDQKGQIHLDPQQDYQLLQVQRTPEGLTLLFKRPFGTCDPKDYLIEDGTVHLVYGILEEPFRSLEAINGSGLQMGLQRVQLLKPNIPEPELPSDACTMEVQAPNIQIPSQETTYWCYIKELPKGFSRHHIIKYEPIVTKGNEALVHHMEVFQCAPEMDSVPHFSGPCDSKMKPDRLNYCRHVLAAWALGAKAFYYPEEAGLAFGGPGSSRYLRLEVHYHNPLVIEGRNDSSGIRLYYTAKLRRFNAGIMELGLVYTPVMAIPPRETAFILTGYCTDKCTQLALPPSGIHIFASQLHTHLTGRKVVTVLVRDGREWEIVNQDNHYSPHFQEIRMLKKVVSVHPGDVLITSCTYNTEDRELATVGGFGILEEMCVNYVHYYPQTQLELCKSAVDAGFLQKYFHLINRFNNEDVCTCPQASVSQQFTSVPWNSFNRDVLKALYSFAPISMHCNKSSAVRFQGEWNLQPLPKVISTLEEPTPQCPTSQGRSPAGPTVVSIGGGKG
The assay is described as follows: Human DBH activity, conversion of tyramine to octopamine (HPLC). As to conditions: for IC50: 0.1 mM tyramine, 4 mM ascorbate, pH 5.2. The format is biochemical. The protocol: (§1) Bovine and human dopamine-β-hydroxylase activity was assayed by measuring the conversion of tyramine to octopamine. Bovine adrenal dopamine-β-hydroxylase was obtained from Sigma Chemicals (St Louis, Mo., USA) whereas human dopamine-β-hydroxylase was purified from the culture medium of the neuroblastoma cell line SK-N-SH. The assay was performed at pH 5.2 and 32° C. in a medium containing 0.125 M NaAc, 10 mM fumarate, 0.5-2 μM CuSO4, 0.1 mg.ml^−1 catalase, 0.1 mM tyramine and 4 mM ascorbate. In a typical assay, 0.5-1 milliunits of enzyme were added to the reaction mixture and, subsequently, a substrate mixture containing catalase, tyramine and ascorbate was added to initiate the reaction (final volume of 200 μl). Samples were incubated with or without the appropriate concentration of nepicastat (S-enantiomer) or (R)-5-Aminomethyl-1-(5,7-difluoro-1,2,3,4-tetrahydronaphth-2-yl)-2,3-dihydro-2-thioxo-1H-imidazole hydrochloride (R-enantiomer) at 37° C. for 30-40 minutes. The reaction was quenched by the stop solution containing 25 mM EDTA and 240 μM 3-hydroxytyramine (internal standard). The samples were analysed for octopamine by reverse phase high pressure liquid chromatography (HPLC) using ultraviolet-detection at […]. The HPLC chromatography run was carried out at the flow rate of 1 ml.min^−1 using a LiChroCART 125-4 RP-18 column and isocratic elution with 10 mM acidic acid, 10 mM 1-heptane sulfonic acid, 12 mM tetrabutyl ammonium phosphate and 10% methanol. The remaining percent activity was calculated based on controls, corrected using internal standards and fitted to a non-linear four-parameter concentration-response curve.
(§2) In vitro assay of DBH activity. DBH activity was assayed by measuring the conversion of tyramine to octopamine. Bovine DBH from adrenal glands was obtained from Sigma Chemical Co (St Louis, Mo.). Human secretory DBH was purified from the culture medium of the neuroblastoma cell line SK-N-SH. The assay was performed at pH 5.2 and 32° C. in 0.125 M NaOAc, 10 mM fumarate, 0.5-2 μM CUSO4, 0.1 mg/mL catalase, 0.1 mM tyramine and 4 mM ascorbate. In a typical assay, 0.5-1 milliunits of enzyme were added to the reaction mixture and then a substrate mixture containing catalase, tyramine and ascorbate was added to initiate the reaction (final volume of 200 μL). Samples were incubated with or without the appropriate concentration of the inhibitor at 37° C. for 30-40 min. The reaction was quenched by the stop solution containing 25 mM EDTA and 240 μM 3-hydroxytyramine (internal standard). The samples were analysed for octopamine by reverse phase HPLC using UV detection at […]. The remaining percent activity was calculated based on controls (without inhibitor), corrected using internal standards and fitted to a non-linear 4-parameter concentration-response curve to obtain IC50 values.
Bovine DBH from adrenal glands was obtained from Sigma Chemicals (St. Louis, Mo.). Human secretory DBH was purified from the culture medium of the neuroblastoma cell line SK-N-SH and was used to obtain the inhibition data. A lentil lectin-sepharose column containing 25 ml gel was prepared and equilibrated with 50 mM KH2PO4, pH 6.5, 0.5 M NaCl. The column was eluted with 35 ml of 10% methyl α, D-mannopyranoside in 50 mM KH2PO4, pH 6.5, 0.5 M NaCl at 0.5 ml/min. Fraction containing most enzymatic activities were pooled and concentrated with an Amicon stirred cell using a YM30 membrane. Methyl α, D-mannopyranoside was removed by buffer exchange with in 50 mM KH2PO4, pH 6.5, 0.1 M NaCl. The concentrated enzyme solution was aliquoted and stored at −25° C. An HPLC assay was used to measure DBH activity using tyramine and ascorbate as substrates. […]

Assay [2] addresses T2, bovine dopamine-β-hydroxylase (Bos taurus, UniProt P15101).
T2 construct: Bovine DBH from adrenal glands was obtained from Sigma Chemicals; purchased Sigma Chemicals (St Louis, Mo.); host or cells: bovine adrenal glands
T2 sequence (P15101 1-610): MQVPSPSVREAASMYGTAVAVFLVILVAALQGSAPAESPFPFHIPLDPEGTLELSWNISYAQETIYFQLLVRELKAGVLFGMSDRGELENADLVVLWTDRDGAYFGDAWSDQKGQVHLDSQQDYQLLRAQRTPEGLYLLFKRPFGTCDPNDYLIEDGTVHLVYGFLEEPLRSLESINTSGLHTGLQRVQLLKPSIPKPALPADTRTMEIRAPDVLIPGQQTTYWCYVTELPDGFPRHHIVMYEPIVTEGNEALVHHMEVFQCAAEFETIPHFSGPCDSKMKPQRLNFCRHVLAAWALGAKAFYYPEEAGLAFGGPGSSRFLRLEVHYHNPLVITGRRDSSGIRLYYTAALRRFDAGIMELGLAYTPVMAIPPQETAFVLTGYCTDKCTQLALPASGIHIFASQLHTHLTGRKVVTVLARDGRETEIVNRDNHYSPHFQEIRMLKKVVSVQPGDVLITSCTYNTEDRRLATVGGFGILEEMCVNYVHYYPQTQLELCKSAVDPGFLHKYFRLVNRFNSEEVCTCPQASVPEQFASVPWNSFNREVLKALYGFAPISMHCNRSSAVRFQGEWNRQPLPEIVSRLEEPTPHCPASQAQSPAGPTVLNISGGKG
The assay is described as follows: Bovine DBH activity, conversion of tyramine to octopamine (HPLC). As to conditions: for IC50: 0.1 mM tyramine, 4 mM ascorbate, pH 5.2. The format is biochemical. The protocol: as §1, §2
Bovine DBH from adrenal glands was obtained from Sigma Chemicals (St. Louis, Mo.). Human secretory DBH was purified from the culture medium of the neuroblastoma cell line SK-N-SH and was used to obtain the inhibition data. A lentil lectin-sepharose column containing 25 ml gel was prepared and equilibrated with 50 mM KH2PO4, pH 6.5, 0.5 M NaCl. The column was eluted with 35 ml of 10% methyl α, D-mannopyranoside in 50 mM KH2PO4, pH 6.5, 0.5 M NaCl at 0.5 ml/min. Fraction containing most enzymatic activities were pooled and concentrated with an Amicon stirred cell using a YM30 membrane. […]

Setting [3] is: bovine and human DBH taken together.

Turning to `Cl.NCc1c[nH]c(=S)n1[C@@H]1CCc2c(F)cc(F)cc2C1` [R-enantiomer, (R)-5-Aminomethyl-1-(5,7-difluoro-1,2,3,4-tetrahydronaphth-2-yl)-2,3-dihydro-2-thioxo-1H-imidazole hydrochloride], the IC50 in assay [1] was 18.3 nM and 18 nM; in assay [2], 25.1 ± 0.6 nM.
For the compound `Fc1cc(F)cc(Cn2cc[nH]c2=S)c1` [SKF 102698, reference compound], the values for the IC50 in assay [1] and in assay [2] were 85 ± 3.7 nM and 67 ± 4.2 nM, respectively.
With `Cl.NCc1c[nH]c(=S)n1[C@H]1CCc2c(F)cc(F)cc2C1` [nepicastat, (S)-5-Aminomethyl-1-(5,7-difluoro-1,2,3,4-tetrahydronaphth-2-yl)-2,3-dihydro-2-thioxo-1H-imidazole hydrochloride], in assay [1], the “potency relative to SKF 102698” value was 9 fold, the “potency relative to the R enantiomer” value came to 2 fold and the IC50 worked out at 9 nM. Moreover, in assay [1] (setting [3]), the “potency relative to SKF 102698” value was 8-9 fold and the “potency relative to the R enantiomer” value was 2-3 fold. For the same compound, the “selectivity for dopamine-β-hydroxylase” value in assay [1] (vs the other enzymes studied) is given as greater than 1000 fold. Further, in assay [2], the “potency relative to SKF 102698” value was found to be 8 fold, the “potency relative to the R enantiomer” value came to 3 fold and inhibition was half-maximal at 8.5 ± 0.8 nM (IC50).
